Several values for one entry are separate records, joined by “and”; a condition that tells them apart may be missing. Equal values may be shown once. Records with an inconclusive call do not appear.
Test system: Lewis lung carcinoma i.m., BDF1 mice, T/C %
Experiment: NCI In Vivo Anticancer Drug Screen. Data for tumor model Lewis Lung Carcinoma (intramuscular) in B6D2F1 (BDF1) mice
Method in brief: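 Value is the ratio of a treated-group measurement (T) to the matching vehicle-control measurement (C), using either survival or tumour size in mice bearing transplanted tumours.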

[1] = endpoint: mean tumor weight, dose: 12.5 mg/kg/injection, schedule: Q01DX011 (ip), vehicle: saline, higher = larger tumour
[2] = endpoint: mean tumor weight, dose: 25.0 mg/kg/injection, schedule: Q01DX011 (ip), vehicle: saline, higher = larger tumour
[3] = endpoint: median survival time, dose: 12.5 mg/kg/injection, schedule: Q01DX011 (ip), vehicle: saline, higher = longer survival
[4] = endpoint: median survival time, dose: 25.0 mg/kg/injection, schedule: Q01DX011 (ip), vehicle: saline, higher = longer survival
[5] = endpoint: median survival time, dose: 1.56 mg/kg/injection, schedule: Q01DX011 (ip), vehicle: saline, higher = longer survival
[6] = endpoint: median survival time, dose: 6.25 mg/kg/injection, schedule: Q01DX011 (ip), vehicle: saline, higher = longer survival
[7] = endpoint: median survival time, dose: 3.12 mg/kg/injection, schedule: Q01DX011 (ip), vehicle: saline, higher = longer survival

## N=C(N)SCc1c2ccccc2c(CSC(=N)N)c2ccccc12
[1]
  T/C: 94 % of control
[2]
  T/C: 84 % of control
endpoint: mean tumor weight, dose: 50.0 mg/kg/injection, schedule: Q01DX011 (ip), vehicle: saline, higher = larger tumour
  T/C: 52 % of control
[3]
  T/C: 110 % of control
[4]
  T/C: 104 % of control

## Nc1nc(SCc2ccccc2)c2[nH]cnc2n1
endpoint: mean tumor weight (est.), dose: 0.39 mg/kg/injection, schedule: Q01DX011 (ip), vehicle: saline, higher = larger tumour
  T/C: 86 % of control
endpoint: mean tumor weight (est.), dose: 0.78 mg/kg/injection, schedule: Q01DX011 (ip), vehicle: saline, higher = larger tumour
  T/C: 91 % of control
endpoint: mean tumor weight (est.), dose: 1.56 mg/kg/injection, schedule: Q01DX011 (ip), vehicle: saline, higher = larger tumour
  T/C: 78 % of control
endpoint: mean tumor weight (est.), dose: 6.25 mg/kg/injection, schedule: Q01DX011 (ip), vehicle: saline, higher = larger tumour
  T/C: 70 % of control
endpoint: mean tumor weight, dose: 0.78 mg/kg/injection, schedule: Q01DX011 (ip), vehicle: Klucel (hydroxypropylcellulose) (HPC), higher = larger tumour
  T/C: 105 % of control
endpoint: mean tumor weight, dose: 1.56 mg/kg/injection, schedule: Q01DX011 (ip), vehicle: Klucel (hydroxypropylcellulose) (HPC), higher = larger tumour
  T/C: 92 % of control
endpoint: mean tumor weight, dose: 3.12 mg/kg/injection, schedule: Q01DX011 (ip), vehicle: Klucel (hydroxypropylcellulose) (HPC), higher = larger tumour
  T/C: 87 % of control
endpoint: median survival time, dose: 0.39 mg/kg/injection, schedule: Q01DX011 (ip), vehicle: saline, higher = longer survival
  T/C: 103 % of control
endpoint: median survival time, dose: 1.56 mg/kg/injection, schedule: Q01DX011 (ip), vehicle: Klucel (hydroxypropylcellulose) (HPC), higher = longer survival
  T/C: 102 % of control
[5]
  T/C: 96 % of control
[6]
  T/C: 111 % of control

## COc1ccc([I+]c2ccc(OC)cc2)cc1
endpoint: median survival time, dose: 0.78 mg/kg/injection, schedule: Q01DX011 (ip), vehicle: saline, higher = longer survival
  T/C: 110 % of control
[5]
  T/C: 106 % of control
[7]
  T/C: 98 % of control

## CCOC(N)=O
[4]
  T/C: 110 % of control
endpoint: median survival time, dose: 100.0 mg/kg/injection, schedule: Q01DX011 (ip), vehicle: saline, higher = longer survival
  T/C: 100 % of control
endpoint: median survival time, dose: 200.0 mg/kg/injection, schedule: Q01DX011 (ip), vehicle: saline, higher = longer survival
  T/C: 104 % of control
endpoint: median survival time, dose: 400.0 mg/kg/injection, schedule: Q01DX011 (ip), vehicle: saline, higher = longer survival
  T/C: 110 % of control

## CSC(=S)N/N=C/c1ccccn1
endpoint: mean tumor weight (est.), dose: 12.5 mg/kg/injection, schedule: Q01DX011 (ip), vehicle: saline with Tween-80, higher = larger tumour
  T/C: 67 % of control
endpoint: mean tumor weight (est.), dose: 25.0 mg/kg/injection, schedule: Q01DX011 (ip), vehicle: saline with Tween-80, higher = larger tumour
  T/C: 92 % of control
endpoint: mean tumor weight (est.), dose: 50.0 mg/kg/injection, schedule: Q01DX011 (ip), vehicle: saline with Tween-80, higher = larger tumour
  T/C: 50 % of control

## O=[N+]([O-])O.[Ga]
endpoint: mean tumor weight, dose: 3.12 mg/kg/injection, schedule: Q01DX011 (ip), vehicle: saline, higher = larger tumour
  T/C: 101 % of control
endpoint: mean tumor weight, dose: 6.25 mg/kg/injection, schedule: Q01DX011 (ip), vehicle: saline, higher = larger tumour
  T/C: 104 % of control
[1]
  T/C: 85 % of control
[2]
  T/C: 84 % of control
[7]
  T/C: 102 % of control
[6]
  T/C: 97 % of control
[3]
  T/C: 106 % of control
[4]
  T/C: 93 % of control

## CC(=O)O[C@]1(C(C)=O)CC[C@H]2[C@@H]3C[C@H](C)C4=CC(=O)CC[C@]4(C)[C@H]3CC[C@@]21C
endpoint: median survival time, dose: 50.0 mg/kg/injection, schedule: Q01DX009 (ip), vehicle: Klucel (hydroxypropylcellulose) (HPC), higher = longer survival
  T/C: 90 % of control
endpoint: median survival time, dose: 50.0 mg/kg/injection, schedule: Q01DX011 (ip), vehicle: Klucel (hydroxypropylcellulose) (HPC), higher = longer survival
  T/C: 104 % of control and 109 % of control
endpoint: median survival time, dose: 100.0 mg/kg/injection, schedule: Q01DX009 (ip), vehicle: Klucel (hydroxypropylcellulose) (HPC), higher = longer survival
  T/C: 107 % of control
endpoint: median survival time, dose: 100.0 mg/kg/injection, schedule: Q01DX011 (ip), vehicle: Klucel (hydroxypropylcellulose) (HPC), higher = longer survival
  T/C: 104 % of control
endpoint: median survival time, dose: 200.0 mg/kg/injection, schedule: Q01DX009 (ip), vehicle: Klucel (hydroxypropylcellulose) (HPC), higher = longer survival
  T/C: 110 % of control
endpoint: median survival time, dose: 200.0 mg/kg/injection, schedule: Q01DX011 (ip), vehicle: Klucel (hydroxypropylcellulose) (HPC), higher = longer survival
  T/C: 107 % of control and 119 % of control
endpoint: median survival time, dose: 400.0 mg/kg/injection, schedule: Q01DX009 (ip), vehicle: Klucel (hydroxypropylcellulose) (HPC), higher = longer survival
  T/C: 114 % of control
endpoint: median survival time, dose: 400.0 mg/kg/injection, schedule: Q01DX011 (ip), vehicle: Klucel (hydroxypropylcellulose) (HPC), higher = longer survival
  T/C: 109 % of control and 123 % of control
endpoint: median survival time, dose: 800.0 mg/kg/injection, schedule: Q01DX009 (ip), vehicle: Klucel (hydroxypropylcellulose) (HPC), higher = longer survival
  T/C: 90 % of control

## CC1=C2C(=C[C@@](C)(CO)[C@@H]2O)C(=O)[C@](C)(O)C12CC2
endpoint: mean tumor weight, dose: 0.1 mg/kg/injection, schedule: Q01DX011 (ip), vehicle: other, higher = larger tumour
  T/C: 89 % of control
endpoint: mean tumor weight, dose: 0.2 mg/kg/injection, schedule: Q01DX011 (ip), vehicle: other, higher = larger tumour
  T/C: 65 % of control
endpoint: mean tumor weight, dose: 0.4 mg/kg/injection, schedule: Q01DX011 (ip), vehicle: other, higher = larger tumour
  T/C: 58 % of control

Source: PubChem BioAssay AID272 (DTP/NCI, 2004)
